Assay: Inhibition of chemR23 expressed in human CAL1 cells assessed as reduction in chemerin-induced chemotaxis incubated for 4 hrs by cell counting based CellTiter-Glo assay

Row | IC50 [nM] | Structure (SMILES)
1 | 235 | CCCCN(c1nc2c(C(=O)O)cccc2o1)[C@H](C)c1ccc(-c2cc(Cl)ccc2-c2nc(=O)o[nH]2)cc1
2 | 63 | Cc1ccc(-c2nc(=O)o[nH]2)c(-c2ccc([C@@H](C)N(CC3CC3)c3nc4c(C(=O)O)cccc4o3)cc2)c1
